Experimental findings from the supplement of paper PMC12137928 are described below.

In the assay the test system is HCT116. As to conditions: 72 h. Summed up: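 HCT116 cells were seeded at 250 per well in 1536-well plates with 5 h allowed for attachment. CellTiter-Glo luminescence was normalized against vehicle (0%) and positive control (-100%) before pattern correction. The IC50 and maximal efficacy figures derive from four-parameter Hill fits.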

Counter-ions that a name gives are not always drawn.

Consider `CCN1CC(CCN2CCOCC2)C(c2ccccc2)(c2ccccc2)C1=O` (configuration not stated) [Doxapram hydrochloride], for which the IC50 cell viability was over 45.8 µM (ICRF193 0 nM) and over 45.8 µM (ICRF193 200 nM).

As to `CN(C)CCC=C1c2ccccc2COc2ccccc21` [Doxepin hydrochloride], the IC50 cell viability is over 45.8 µM (ICRF193 0 nM) and over 45.8 µM (ICRF193 200 nM).

As to `C[C@H]1O[C@@H](n2cc(F)c(=O)[nH]c2=O)[C@H](O)[C@@H]1O` [Doxifluridine], the IC50 cell viability is over 45.8 µM (ICRF193 0 nM) and over 45.8 µM (ICRF193 200 nM).

For `CN(C)CCOC(C)(c1ccccc1)c1ccccn1` (configuration not stated) [Doxylamine succinate], the IC50 cell viability by setting is: (ICRF193 0 nM) over 45.8 µM; (ICRF193 200 nM) over 45.8 µM.

Turning to `O=C(CCCN1CC=C(n2c(=O)[nH]c3ccccc32)CC1)c1ccc(F)cc1` [Droperidol], the IC50 cell viability reads like this: (ICRF193 0 nM) over 45.8 µM; (ICRF193 200 nM) over 45.8 µM.

As for `CCC(=O)O[C@H]1CC[C@H]2[C@@H]3CC[C@H]4CC(=O)[C@H](C)C[C@]4(C)[C@H]3CC[C@]12C` [Drostanolone propionate], the IC50 cell viability by setting is: (ICRF193 0 nM) over 45.8 µM; (ICRF193 200 nM) over 45.8 µM.

In the case of `N[C@H](C(=O)O)[C@H](O)c1ccc(O)c(O)c1` [Droxidopa], the IC50 cell viability is over 45.8 µM (ICRF193 0 nM) and over 45.8 µM (ICRF193 200 nM).

For the molecule `C[C@]12C=CC(=O)N[C@@H]1CC[C@@H]1[C@@H]2CC[C@]2(C)[C@@H](C(=O)Nc3cc(C(F)(F)F)ccc3C(F)(F)F)CC[C@@H]12` [Dutasteride], the IC50 cell viability by setting is: (ICRF193 0 nM) over 45.8 µM; (ICRF193 200 nM) over 45.8 µM.

For `CCCCOc1ccc(C(=O)CCN2CCCCC2)cc1` [Dyclonine hydrochloride], the IC50 cell viability is over 45.8 µM (ICRF193 0 nM) and over 45.8 µM (ICRF193 200 nM).

Take `Cn1c(=O)c2c(ncn2CC(O)CO)n(C)c1=O` (configuration not stated) [Dyphylline]: the IC50 cell viability runs as follows: (ICRF193 0 nM) over 45.8 µM; (ICRF193 200 nM) over 45.8 µM.

Molecule `O=c1c2c(c1=O)N(CCP(=O)(O)O)CCCN2` [EAA-090] gave an IC50 cell viability (ICRF193 0 nM) of over 45.8 µM and an IC50 cell viability (ICRF193 200 nM) of over 45.8 µM.

`CCOC(=O)COc1ccc2c(=O)cc(-c3ccccc3)oc2c1` [EFLOXATE] yielded an IC50 cell viability (ICRF193 0 nM) of over 45.8 µM and an IC50 cell viability (ICRF193 200 nM) of over 45.8 µM.

On to `CC1(C)[C@@H](O)CC[C@]2(C)[C@H]3C(=O)C=C4[C@@H]5C[C@@](C)(C(=O)O)CC[C@]5(C)CC[C@@]4(C)[C@]3(C)CC[C@@H]12` [ENOXOLONE], for which the IC50 cell viability by setting is: (ICRF193 0 nM) over 45.8 µM; (ICRF193 200 nM) over 45.8 µM.

Regarding `Cc1ccc(/C=C2/C(=O)C3(C)CCC2C3(C)C)cc1` (configuration not stated) [ENZACAMENE], the IC50 cell viability by setting is: (ICRF193 0 nM) over 45.8 µM; (ICRF193 200 nM) over 45.8 µM.

With `CCOC(=O)CCC(=O)O[C@H]1[C@H](O[C@@H]2[C@@H](C)[C@H](O[C@H]3C[C@@](C)(OC)[C@@H](O)[C@H](C)O3)[C@@H](C)C(=O)O[C@H](CC)[C@@](C)(O)[C@H](O)[C@@H](C)C(=O)[C@H](C)C[C@@]2(C)O)O[C@H](C)C[C@@H]1N(C)C` [ERYTHROMYCIN ETHYLSUCCINATE], the IC50 cell viability is over 45.8 µM (ICRF193 0 nM) and over 45.8 µM (ICRF193 200 nM).

With `C[C@]12CC[C@@H]3c4ccc(OC(=O)c5ccccc5)cc4CC[C@H]3[C@@H]1CC[C@@H]2O` [ESTRADIOL BENZOATE], the IC50 cell viability runs as follows: (ICRF193 0 nM) over 45.8 µM; (ICRF193 200 nM) over 45.8 µM.

In the case of `C[C@]12CC[C@@H]3c4ccc(OS(=O)(=O)O)cc4CC[C@H]3[C@@H]1CCC2=O` [ESTROPIPATE], the IC50 cell viability was over 45.8 µM (ICRF193 0 nM) and over 45.8 µM (ICRF193 200 nM).

For `CC1=NN(c2ccccc2)C(=O)C1` [Edaravone], the IC50 cell viability by setting is: (ICRF193 0 nM) over 45.8 µM; (ICRF193 200 nM) over 45.8 µM.

Turning to `CN1CCc2nc(C(=O)N[C@@H]3C[C@@H](C(=O)N(C)C)CC[C@@H]3NC(=O)C(=O)Nc3ccc(Cl)cn3)sc2C1` [Edoxaban tosylate monohydrate], the IC50 cell viability runs as follows: (ICRF193 0 nM) over 45.8 µM; (ICRF193 200 nM) over 45.8 µM.

On to `CC[N+](C)(C)c1cccc(O)c1` [Edrophonium chloride], for which the IC50 cell viability runs as follows: (ICRF193 0 nM) over 45.8 µM; (ICRF193 200 nM) over 45.8 µM.

For `C=C1CCN([C@H](C)[C@](O)(Cn2cncn2)c2ccc(F)cc2F)CC1` [Efinaconazole], the IC50 cell viability was over 45.8 µM (ICRF193 0 nM) and over 45.8 µM (ICRF193 200 nM).

With `NCCCC(N)(C(=O)O)C(F)F` (configuration not stated) [Eflornithine Hydrochloride], the IC50 cell viability reads like this: (ICRF193 0 nM) over 45.8 µM; (ICRF193 200 nM) over 45.8 µM.

In the case of `CC/C=C\C/C=C\C/C=C\C/C=C\C/C=C\CCCC(=O)O` [Eicosapentaenoic Acid], the IC50 cell viability is over 45.8 µM (ICRF193 0 nM) and over 45.8 µM (ICRF193 200 nM).

As to `CC/C=C\C/C=C\C/C=C\C/C=C\C/C=C\CCCC(=O)OCC` [Eicosapentaenoic acid ethyl ester], the IC50 cell viability was over 45.8 µM (ICRF193 0 nM) and over 45.8 µM (ICRF193 200 nM).

As for `CCCCCCCC/C=C/CCCCCCCC(=O)O` [Elaidic Acid], the IC50 cell viability runs as follows: (ICRF193 0 nM) over 45.8 µM; (ICRF193 200 nM) over 45.8 µM.

`COC(=O)N[C@H](C(=O)N1CCC[C@H]1c1nc(-c2ccc3c(c2)O[C@@H](c2ccccc2)n2c-3cc3cc(-c4c[nH]c([C@@H]5CCCN5C(=O)[C@@H](NC(=O)OC)C(C)C)n4)ccc32)c[nH]1)C(C)C` [Elbasvir]: the IC50 cell viability reads like this: (ICRF193 0 nM) over 45.8 µM; (ICRF193 200 nM) over 45.8 µM.

Regarding `C=C1/C(=C\C=C2/CCC[C@]3(C)[C@@H]([C@H](C)CCCC(C)(C)O)CC[C@@H]23)C[C@@H](O)[C@@H](OCCCO)[C@@H]1O` [Eldecalcitol], the IC50 cell viability runs as follows: (ICRF193 0 nM) over 45.8 µM; (ICRF193 200 nM) over 45.8 µM.

As for `CN1CCC[C@@H]1Cc1c[nH]c2ccc(CCS(=O)(=O)c3ccccc3)cc12` [Eletriptan], the IC50 cell viability runs as follows: (ICRF193 0 nM) over 45.8 µM; (ICRF193 200 nM) over 45.8 µM.

Take `O=c1oc2c(O)c(O)cc3c(=O)oc4c(O)c(O)cc1c4c23` [Ellagic acid]: the IC50 cell viability runs as follows: (ICRF193 0 nM) over 45.8 µM; (ICRF193 200 nM) over 45.8 µM.

In the case of `COc1ccc(CN(C(=O)[C@@H](N)Cc2c(C)cc(C(N)=O)cc2C)[C@@H](C)c2ncc(-c3ccccc3)[nH]2)cc1C(=O)O` [Eluxadoline], the IC50 cell viability was over 45.8 µM (ICRF193 0 nM) and over 45.8 µM (ICRF193 200 nM).

As to `CCC(CC)(CNC(=O)CCCO)c1cccc(OC)c1` [Embutramide], the IC50 cell viability is, setting by setting: (ICRF193 0 nM) over 45.8 µM; (ICRF193 200 nM) over 45.8 µM.

Regarding `CCOCCn1c(N2CCCN(C)CC2)nc2ccccc21` [Emedastine difumarate], the IC50 cell viability by setting is: (ICRF193 0 nM) over 45.8 µM; (ICRF193 200 nM) over 45.8 µM.

Regarding `CCOC(=O)c1ccc(OCCN2C[C@H](O)[C@@H](O)[C@H](O)[C@H]2CO)cc1` [Emiglitate], the IC50 cell viability is over 45.8 µM (ICRF193 0 nM) and over 45.8 µM (ICRF193 200 nM).

As for `CC(C)C[C@H]1C(=O)O[C@H](Cc2ccc(N3CCOCC3)cc2)C(=O)N(C)[C@@H](CC(C)C)C(=O)O[C@H](C)C(=O)N(C)[C@@H](CC(C)C)C(=O)O[C@H](Cc2ccc(N3CCOCC3)cc2)C(=O)N(C)[C@@H](CC(C)C)C(=O)O[C@H](C)C(=O)N1C` [Emodepside], the IC50 cell viability is over 45.8 µM (ICRF193 0 nM) and over 45.8 µM (ICRF193 200 nM).

For `CCOc1c(N2CCOCC2)cnn(C)c1=O` [Emorfazone], the IC50 cell viability by setting is: (ICRF193 0 nM) over 45.8 µM; (ICRF193 200 nM) over 45.8 µM.

On to `Nc1nc(=O)n([C@@H]2CS[C@H](CO)O2)cc1F` [Emtricitabine], for which the IC50 cell viability is, setting by setting: (ICRF193 0 nM) over 45.8 µM; (ICRF193 200 nM) over 45.8 µM.

Take `C[C@H](N[C@@H](CCc1ccccc1)C(=O)O)C(=O)N1CCC[C@H]1C(=O)O` [Enalapril acid]: the IC50 cell viability is over 45.8 µM (ICRF193 0 nM) and over 45.8 µM (ICRF193 200 nM).

Consider `CCOC(=O)[C@H](CCc1ccccc1)N[C@@H](C)C(=O)N1CCC[C@H]1C(=O)O` [Enalapril maleate], for which the IC50 cell viability is over 45.8 µM (ICRF193 0 nM) and over 45.8 µM (ICRF193 200 nM).

As for `CC(C)(O)CNc1nc(Nc2ccnc(C(F)(F)F)c2)nc(-c2cccc(C(F)(F)F)n2)n1` [Enasidenib], the IC50 cell viability (ICRF193 0 nM) was over 45.8 µM and the IC50 cell viability (ICRF193 200 nM) is over 45.8 µM.

For `COc1ccc(C(=O)Nc2ccccc2CCC2CCCCN2C)cc1` (configuration not stated) [Encainide hydrochloride], the IC50 cell viability (ICRF193 0 nM) is over 45.8 µM and the IC50 cell viability (ICRF193 200 nM) was over 45.8 µM.

For the molecule `FC(F)OC(F)(F)C(F)Cl` (configuration not stated) [Enflurane], the IC50 cell viability is over 45.8 µM (ICRF193 0 nM) and over 45.8 µM (ICRF193 200 nM).

For `CCCCCCCCCCCCCCCCCCCCCC(=O)Nc1ccn([C@@H]2O[C@H](CO)[C@@H](O)[C@@H]2O)c(=O)n1` [Enocitabine], the IC50 cell viability is over 45.8 µM (ICRF193 0 nM) and over 45.8 µM (ICRF193 200 nM).

Consider `CCn1cc(C(=O)O)c(=O)c2cc(F)c(N3CCNCC3)nc21` [Enoxacin], for which the IC50 cell viability runs as follows: (ICRF193 0 nM) over 45.8 µM; (ICRF193 200 nM) over 45.8 µM.

Turning to `CSc1ccc(C(=O)c2[nH]c(=O)[nH]c2C)cc1` [Enoximone], the IC50 cell viability is over 45.8 µM (ICRF193 0 nM) and over 45.8 µM (ICRF193 200 nM).

Molecule `CCN1CCN(c2cc3c(cc2F)c(=O)c(C(=O)O)cn3C2CC2)CC1` [Enrofloxacin] registered an IC50 cell viability (ICRF193 0 nM) of over 45.8 µM and an IC50 cell viability (ICRF193 200 nM) of over 45.8 µM.

Take `O=S(=O)(O)c1ccc2[nH]c(-c3ccccc3)nc2c1` [Ensulizole]: the IC50 cell viability by setting is: (ICRF193 0 nM) over 45.8 µM; (ICRF193 200 nM) over 45.8 µM.

`CCN(CC)C(=O)/C(C#N)=C/c1cc(O)c(O)c([N+](=O)[O-])c1` [Entacapone] came in with an IC50 cell viability (ICRF193 0 nM) of over 45.8 µM and an IC50 cell viability (ICRF193 200 nM) of over 45.8 µM.

`C=C1[C@H](CO)[C@@H](O)C[C@@H]1n1cnc2c(=O)[nH]c(N)nc21` [Entecavir (monohydrate)] registered an IC50 cell viability (ICRF193 0 nM) of over 45.8 µM and an IC50 cell viability (ICRF193 200 nM) of over 45.8 µM.

In the case of `Cn1cc(C2=C(c3cn(C4CCN(Cc5ccccn5)CC4)c4ccccc34)C(=O)NC2=O)c2ccccc21` [Enzastaurin], the IC50 cell viability by setting is: (ICRF193 0 nM) over 45.8 µM; (ICRF193 200 nM) over 45.8 µM.

On to `CC(/C=C1\SC(=S)N(CC(=O)O)C1=O)=C\c1ccccc1` [Epalrestat], for which the IC50 cell viability was over 45.8 µM (ICRF193 0 nM) and over 45.8 µM (ICRF193 200 nM).

On to `NC1=NCC2c3ccccc3Cc3ccccc3N12` (configuration not stated) [Epinastine hydrochloride], for which the IC50 cell viability by setting is: (ICRF193 0 nM) over 45.8 µM; (ICRF193 200 nM) over 45.8 µM.
